Test results as given in ChEMBL document CHEMBL1158952, “An Nmr Study of Four Benzophenanthridine Alkaloids” (J Nat Prod, 1991).
Calls of active or inactive are those of the source.

Columns and labels:
Type in all cases: functional, organism-based
Penicillium oxalicum = test: Antimicrobial activity against Penicillium oxalicum CBS 219.30 at 25 ug
Bacillus subtilis = test: Antimicrobial activity against Bacillus subtilis ATCC 6633 at 25 ug
Micrococcus luteus = test: Antimicrobial activity against Micrococcus luteus ATCC 9341 at 25 ug
Escherichia coli = test: Antimicrobial activity against Escherichia coli ATCC 25922 at 25 ug

Measured: Activity

COc1cc2c(c3c1-c1ccc4cc5c(cc4c1N(C)C3)OCO5)OCO2
inactive: all assays above

CN1Cc2c(ccc3c2OCO3)-c2ccc3cc4c(cc3c21)OCO4
inactive: all assays above

COc1ccc2c(c1OC)CN(C)c1c-2ccc2cc3c(cc12)OCO3
inactive: all assays above

COc1ccc2c(c1OC)CN(C)c1c-2cc(OC)c2cc3c(cc12)OCO3
inactive: all assays above
